Like-named read-outs stand apart in the source and are kept apart here.
What was measured:
[1] = in vivo; cited from earlier work
[2] = Rat PK study: zoledronic acid in plasma after IV, oral gavage or intraduodenal dosing (LC/MS/MS); format: in vivo; details: male, Sprague-Dawley, read-out: Average plasma concentration of 3 rats
Excerpt: (§1) This can be attributed to the fact that both animals have historically been used in the safety evaluation and PK screening studies and are recommended by appropriate regulatory agencies. […] Additional tests included ID administration in rats and administration of enteric coated capsules in dogs.
(§2) USA. Some animals have surgical catheters (jugular vein and intraduodenum) were implanted to the animals prior to the studies. Beagle dogs from Marshall Farms, N.Y., USA, weighing from (9-12 kg) were used in the studies presented herein. Surgical catheters (jugular vein) were implanted prior to the studies.
The dose of each rat was calculated on a per rat basis (not on an average weight of all the rats in the lot). • ii. Oral gavage administration: solid suspensions were administered. The dose of each rat was calculated on a per rat basis (not on an average weight of all the rats in the lot). […] Duodenal cannula administration: solid suspensions were administered. The dose of each rat was calculated on a per rat basis (not on an average weight of all the rats in the lot).
Two major groups of animals were selected for the study. • Group 1 consists of rat studies. […] Details of Group 1 Rat Dosing
Plasma was collected after centrifugation at 13,000 rpm for 5 min at 4° C. and immediately frozen and stored at −60 to −80° C. until analysis.

[3] = Dog urine excretion: quantity of zoledronic acid in urine over collection intervals (LC/MS/MS); format: in vivo, Beagle dogs; details: Leg 38, 0.12 mg/kg IV, saline solution
[4] = cited from earlier work
[5] = Dog PK study: zoledronic acid in serum after IV or oral capsule dosing, enteric or non-enteric coated, with or without excess coformer (LC/MS/MS); format: in vivo, Beagle dogs; details: beagle
Excerpt: as §1, §2
The dose volume of each dog was adjusted based upon the average weight of the dog. • ii. […]
Blood samples were placed without the use of an anticoagulant and allowed to sit at room temperature for approximately 30 minutes. Samples were then centrifuged at a temperature of 4° C., at a speed of 13,000 rpm, for 5 minutes. Serum was collected and split into two aliquots and stored frozen (−80° C.) until analysis.
In this study, capsules of particulate materials (zoledronic:DL-lysine:water complex and excess pure DL-lysine).

[6] = other: intraduodenal (ID, duodenal cannula), 5 mg/kg

For `O=P(O)(O)C(O)(Cn1ccnc1)P(=O)(O)O` [Zoledronic acid, (1-hydroxy-2-imidazol-1-yl-1-phosphono-ethyl)phosphonic acid], the “gastric and intestinal irritations” value [1] is given as “severe gastric and intestinal irritations”, the concentration at 0.083333 hour ([2]; iv, 0.5 mg/kg) is given as 3250 ng/mL and the concentration at 0.25 hour ([2]; iv, 0.5 mg/kg) is given as 1950 ng/mL. It also gave a concentration at 0.5 hour ([2]; iv, 0.5 mg/kg) of 1130 ng/mL, a concentration at 1 hour ([2]; iv, 0.5 mg/kg) of 404 ng/mL and a concentration at 2 hour ([2]; iv, 0.5 mg/kg) of 113 ng/mL. For the same compound, the concentration at 4 hour ([2]; iv, 0.5 mg/kg) was 30.5 ng/mL, the concentration at 8 hour ([2]; iv, 0.5 mg/kg) was 10.7 ng/mL and the concentration at 24 hour ([2]; iv, 0.5 mg/kg) was 2.98 ng/mL. For the same compound, the concentration at 0.25 hour [2, 6] was 146 ng/mL, the concentration at 0.5 hour [2, 6] was 110 ng/mL and the concentration at 1 hour [2, 6] was 47.4 ng/mL. The concentration at 2 hour [2, 6] was 12.9 ng/mL, the concentration at 4 hour [2, 6] was 3.85 ng/mL and the concentration at 8 hour [2, 6] was 0.97 ng/mL. For the same compound, the concentration at 24 hour [2, 6] was 0 ng/mL, the concentration at 0.25 hour ([2]; po, 5 mg/kg) was 330 ng/mL and the concentration at 0.5 hour ([2]; po, 5 mg/kg) was 267 ng/mL. It also gave a concentration at 1 hour ([2]; po, 5 mg/kg) of 139 ng/mL, a concentration at 2 hour ([2]; po, 5 mg/kg) of 47.7 ng/mL and a concentration at 4 hour ([2]; po, 5 mg/kg) of 11.8 ng/mL. The concentration at 8 hour ([2]; po, 5 mg/kg) was 2 ng/mL, the concentration at 24 hour ([2]; po, 5 mg/kg) was 0 ng/mL and the “Average quantity of zoledronic acid in urine excretion of 4 dogs” value (“Average quantity of zoledronic acid” for short) ([3]; interval 0-4 h) was 242050 ng. The “Average quantity of zoledronic acid” value ([3]; interval 4-8 h) was 21165 ng, the “Average quantity of zoledronic acid” value ([3]; interval 8-12 h) was 10925 ng and the “Average quantity of zoledronic acid” value ([3]; interval 12-24 h) was 43700 ng. The “Average quantity of zoledronic acid” value ([3]; interval 24-96 h) was 263151 ng, the solubility ([4]; in 0.1 N HCl solution) was “sparingly soluble” and the solubility ([4]; in 0.1 N NaOH) was “freely soluble”. For the same compound, the solubility ([4]; in various organic solvents) was “practically insoluble”, the solubility ([4]; in water) was “sparingly soluble” and the bioavailability ([5]; Leg 37: 63.1 mg Zoledronic, DL-lysine, and water complex with 1965.7 mg DL-lysine monohydrate, PO gelatin capsules) was > 8%. It also gave a concentration at 0 h ([5]; intravenous, 0.12 mg/kg, Leg 18, 15 min IV infusion 0.12 mg/kg, saline solution, Time 0 hour (pre-dose), read-out: Average serum concentration of 5 dogs) of 0 ng/mL, a concentration at 5 min ([5]; intravenous, 0.12 mg/kg, Leg 18, 15 min IV infusion 0.12 mg/kg, saline solution, Time 0.0833 hour, read-out: Average serum concentration of 5 dogs) of 309 ng/mL and a concentration at 10 min ([5]; intravenous, 0.12 mg/kg, Leg 18, 15 min IV infusion 0.12 mg/kg, saline solution, Time 0.1667 hour, read-out: Average serum concentration of 5 dogs) of 525 ng/mL. It also gave a concentration at 0.25 h ([5]; intravenous, 0.12 mg/kg, Leg 18, 15 min IV infusion 0.12 mg/kg, saline solution, Time 0.25 hour, read-out: Average serum concentration of 5 dogs) of 717 ng/mL, a concentration at 25 min ([5]; intravenous, 0.12 mg/kg, Leg 18, 15 min IV infusion 0.12 mg/kg, saline solution, Time 0.4167 hour, read-out: Average serum concentration of 5 dogs) of 392 ng/mL and a concentration at 0.5 h ([5]; intravenous, 0.12 mg/kg, Leg 18, 15 min IV infusion 0.12 mg/kg, saline solution, Time 0.5 hour, read-out: Average serum concentration of 5 dogs) of 323 ng/mL. For the same compound, the concentration at 0.75 h ([5]; intravenous, 0.12 mg/kg, Leg 18, 15 min IV infusion 0.12 mg/kg, saline solution, Time 0.75 hour, read-out: Average serum concentration of 5 dogs) was 202 ng/mL, the concentration at 1 h ([5]; intravenous, 0.12 mg/kg, Leg 18, 15 min IV infusion 0.12 mg/kg, saline solution, Time 1 hour, read-out: Average serum concentration of 5 dogs) was 133 ng/mL and the concentration at 1.25 h ([5]; intravenous, 0.12 mg/kg, Leg 18, 15 min IV infusion 0.12 mg/kg, saline solution, Time 1.25 hour, read-out: Average serum concentration of 5 dogs) was 93.2 ng/mL. For the same compound, the concentration at 1.5 h ([5]; intravenous, 0.12 mg/kg, Leg 18, 15 min IV infusion 0.12 mg/kg, saline solution, Time 1.5 hour, read-out: Average serum concentration of 5 dogs) was 69.1 ng/mL, the concentration at 2 h ([5]; intravenous, 0.12 mg/kg, Leg 18, 15 min IV infusion 0.12 mg/kg, saline solution, Time 2 hour, read-out: Average serum concentration of 5 dogs) was 38.4 ng/mL and the concentration at 4 h ([5]; intravenous, 0.12 mg/kg, Leg 18, 15 min IV infusion 0.12 mg/kg, saline solution, Time 4 hour, read-out: Average serum concentration of 5 dogs) was 9.14 ng/mL. It also gave a concentration at 8 h ([5]; intravenous, 0.12 mg/kg, Leg 18, 15 min IV infusion 0.12 mg/kg, saline solution, Time 8 hour, read-out: Average serum concentration of 5 dogs) of 3.24 ng/mL, a concentration at 24 h ([5]; intravenous, 0.12 mg/kg, Leg 18, 15 min IV infusion 0.12 mg/kg, saline solution, Time 24 hour, read-out: Average serum concentration of 5 dogs) of 1.21 ng/mL and a concentration at 0.0333 hour ([5]; iv, 0.05 mg/kg, zoledronic acid in dog serum, Leg 1, IV 0.05 mg/kg, saline solution, Time 0.0333 hour, read-out: Average serum concentration of 5 dogs) of 413 ng/mL. For the same compound, the concentration at 0.0833 hour ([5]; iv, 0.05 mg/kg, zoledronic acid in dog serum, Leg 1, IV 0.05 mg/kg, saline solution, Time 0.0833 hour, read-out: Average serum concentration of 5 dogs) was 312 ng/mL, the concentration at 0.1667 hour ([5]; iv, 0.05 mg/kg, zoledronic acid in dog serum, Leg 1, IV 0.05 mg/kg, saline solution, Time 0.1667 hour, read-out: Average serum concentration of 5 dogs) was 229 ng/mL and the concentration at 0.25 hour ([5]; iv, 0.05 mg/kg, zoledronic acid in dog serum, Leg 1, IV 0.05 mg/kg, saline solution, Time 0.25 hour, read-out: Average serum concentration of 5 dogs) was 179 ng/mL. It also gave a concentration at 0.75 hour ([5]; iv, 0.05 mg/kg, zoledronic acid in dog serum, Leg 1, IV 0.05 mg/kg, saline solution, Time 0.75 hour, read-out: Average serum concentration of 5 dogs) of 75.9 ng/mL, a concentration at 1 hour ([5]; iv, 0.05 mg/kg, zoledronic acid in dog serum, Leg 1, IV 0.05 mg/kg, saline solution, Time 1 hour, read-out: Average serum concentration of 5 dogs) of 56.1 ng/mL and a concentration at 1.5 hour ([5]; iv, 0.05 mg/kg, zoledronic acid in dog serum, Leg 1, IV 0.05 mg/kg, saline solution, Time 1.5 hour, read-out: Average serum concentration of 5 dogs) of 30.4 ng/mL. For the same compound, the concentration at 2 hour ([5]; iv, 0.05 mg/kg, zoledronic acid in dog serum, Leg 1, IV 0.05 mg/kg, saline solution, Time 2 hour, read-out: Average serum concentration of 5 dogs) was 17.6 ng/mL, the concentration at 4 hour ([5]; iv, 0.05 mg/kg, zoledronic acid in dog serum, Leg 1, IV 0.05 mg/kg, saline solution, Time 4 hour, read-out: Average serum concentration of 5 dogs) was 4.29 ng/mL and the concentration at 8 hour ([5]; iv, 0.05 mg/kg, zoledronic acid in dog serum, Leg 1, IV 0.05 mg/kg, saline solution, Time 8 hour, read-out: Average serum concentration of 5 dogs) was 1.13 ng/mL.

Reference: US9169279B2, “Crystallization method and bioavailability” (THAR PHARMACEUTICALS, INC., priority 2009, dated 2015)
